Source: PMC6143625, “A high throughput screen for next-generation leads targeting malaria parasite transmission” (Nature Communications, 2018)

Columns and labels:
[1] = test system: HepG2 human cells; set-up: method as in http://dx.doi.org/10.6019/CHEMBL3507680; conditions: ref http://dx.doi.org/10.6019/CHEMBL3507680; cited from earlier work
[2] = test system: P. falciparum 3D7 asexual blood stages; assay: Whole-cell time extended asexual growth assay (pLDH); format: cell-based; conditions: Plasmodium falciparum, 72 h; for IC50: dose response retest, read-out: IC50 (µM) Asex stages; for inhibition at 2 µM: primary screen, read-out: %Inh Asex stages @2uM
Method: Asexual activity was assayed via Plasmodium lactate dehydrogenase activity (pLDH), a surrogate of asexual parasite growth. […] 2 µM artesunate and DMSO were used as the positive and negative controls, respectively. […] After plate mixing, NBT reduction was measured by absorbance at 650 nm using Envision (Perkin Elmer).

Row | IC50 [2] [µM] | SMILES | %Inh HepG2 @10uM [1] [%] | inhibition at 2 µM [2] [%]
1 | 3.16 | COc1cccc(CNCc2cccc(Cl)c2)c1O [DDD01038248] | -4.96 | 33.1
2 | 1.59 | COc1cccc(CNCc2ccc(F)c(Cl)c2)c1O [DDD01038250] | 27.04 | 68.7
3 | 6.14 | COCCCNC(=O)c1cc(C(C)C)nc(N2CCCCCC2)n1 [DDD01038653] | -8.22 | 40.6
4 | 3.8 | Cc1nn(C)c(C)c1CCn1cncc1-c1ccc2c(c1)CC(C)N2C.Cl (stereo not drawn) [DDD01056530] | 4.43 | 51
5 | 1.46 | Cc1cccc(C)c1Nc1noc2c1CN(C(=O)c1ccnn1C)CC2 [DDD01056796] | 69.80 | 68.6
6 | 1.55 | Cc1cccc(C)c1Nc1noc2c1CN(C(=O)c1cn(C)cn1)CC2 [DDD01056797] | 75.15 | 81.2
7 | 2 | Cc1cccc(C)c1Nc1noc2c1CN(C(=O)c1ccn(C)n1)CC2 [DDD01057030] | 46.43 | 47.3
8 | 1.85 | CCCNc1cc(-c2c[nH]nc2C2CCN(C(=O)C3CCC3)C2)ccn1 (stereo not drawn) [DDD01057089] | 96.64 | 43.4
9 | 1.37 | Cl.NC1CCc2nc(-c3cccnc3)nc(Nc3ccc(F)cc3)c2C1 (stereo not drawn) [DDD01057099] | 3.41 | 68.5
10 | 5.06 | CC(C)Nc1cc(-c2c[nH]nc2C2CCN(C(=O)C3CC3)C2)ccn1 (stereo not drawn) [DDD01057305] | 96.71 | 30.6
11 | 3.78 | CC(C)CNc1cc(-c2c[nH]nc2C2CCN(C(=O)C3CC3)C2)ccn1 (stereo not drawn) [DDD01057306] | 95.13 | 35.1
12 | 2.39 | CC(C)Nc1cc(-c2c[nH]nc2C2CCN(C(=O)C3CCC3)C2)ccn1 (stereo not drawn) [DDD01057307] | 95.83 | 36.2
13 | 1.67 | CCOc1ccc(CN2CCCC(c3cc4ncccc4[nH]3)C2)cc1 (stereo not drawn) [DDD01057418] | 6.95 | 91.8
14 | 5.84 | COCC(=O)N1CCCC(c2nc(N(C)C)ncc2-c2ccccc2)C1 (stereo not drawn) [DDD01057962] | 4.41 | 42.5
15 | 0.456 | Cc1nn(C)cc1C1=NS(=O)(=O)N(C)C(C(=O)Nc2ccc(Cl)cc2)=C1 [DDD01058696] | 1.32 | 97.9
16 | 0.366 | Cc1nn(C)cc1C1=NS(=O)(=O)N(C)C(C(=O)Nc2ccc(Br)cc2)=C1 [DDD01058697] | 0.0552 | 98
17 | 1.79 | Cl.Fc1ccc(F)c(CN2CCC(c3cc4ncccc4cn3)CC2)c1 [DDD01058752] | 4.59 | 62.6
18 | 1.64 | Cl.Fc1cccc(CN2CCC(c3cc4ncccc4cn3)CC2)c1F [DDD01058754] | 4.71 | 33.2
19 | 0.853 | COc1ccc(C)cc1CN1CCC(c2cc3ncccc3cn2)CC1.Cl [DDD01058767] | 105.03 | 97.7

Row | IC50 [2] [µM] | SMILES | %Inh HepG2 @10uM [1] [%] | inhibition at 2 µM [2] [%]
20 | 2.2 | Cc1cc(CN2CCc3nc(-c4ccncc4)nc(O)c3CC2)c(C)s1 [DDD01058881] | -7.80 | 77.5
21 | 1.29 | CN(C)CCN(C)C(=O)Cn1cccc2cc(-c3ccc(F)cc3)nc1-2 [DDD01059044] | 4.32 | 97
22 | 2.95 | CCN1c2ccc(-c3cncn3CC(=O)NC(C)(C)C)cc2CC1C.Cl (stereo not drawn) [DDD01059258] | -7.81 | 82.1
23 | 1.55 | c1ccc(-c2cc(CNCCN3CCCC3)c3nnnn3c2)cc1 [DDD01059599] | -3.47 | 79.4
24 | 8.49 | COc1ccc(F)c(CN(CCCn2ccnc2)Cc2ccc(C)s2)c1.O=C(O)CC(O)(CC(=O)O)C(=O)O [DDD01059675] | 45.48 | 33.8
25 | 2.03 | CN(CCCOc1ccccc1)C(=O)c1csc(-c2nnc[nH]2)n1 [DDD01061692] | -5.84 | 34.8
26 | 1.95 | Clc1ccc(C2(CNC3=NCCN3)CC2)cc1.I [DDD01067441] | 10.02 | 40.6
27 | 2.4 | COc1cc(C)sc1C(=O)NCCNc1ccccc1 [DDD01067535] | 11.25 | 41.9
28 | 2.28 | Clc1cccc(CNC2CCN(CCc3ccncc3)CC2)c1 [DDD01069722] | 0.53 | 57.5
29 | 2.5 | COc1ccccc1CN(C)C(=O)CN1CC(n2nc(C)cc2C)C1 [DDD01071519] | -2.12 | 44.4
30 | 2.68 | COc1ccc(C(=O)NCCCOC(C)c2ccccc2)c(OC)c1 (stereo not drawn) [DDD01071935] | -11.10 | 41.6
31 | 2.03 | CCC(=O)NCC(c1ccc(SC)cc1)N1CCc2sccc2C1 (stereo not drawn) [DDD01071943] | -8.32 | 64.5
32 | 7.83 | CN(C)c1ccnc(N2CCC(NCCOc3ccccc3)CC2)n1 [DDD01072965] | 19.60 | 30.8
33 | 1.9 | CCOCC1CCN(C(=O)Nc2ccc3c(c2)CCCN3C)C1 (stereo not drawn) [DDD01073381] | -10.40 | 31.9
34 | 4.85 | COc1cccc(CNc2cc(C)nc(-c3ccncc3)n2)c1OC [DDD01073393] | -6.44 | 40.5
35 | 1.75 | O=C(c1ccccc1)C1CCN(Cc2cc3c(cc2O)CCC3)CC1 [DDD01073482] | 33.89 | 48.9
36 | 9.1 | CC1CCN(c2ccnc3ccc(Br)cc23)CC1 [DDD01075547] | 2.00 | 35.9
37 | 3.18 | Cc1cnc(NCc2ccc(S(=O)(=O)N(C)C(C)C)cc2)nc1C [DDD01077176] | -11.10 | 42.2
38 | 3.47 | N#Cc1c(Cl)nsc1NCCCN1C(=O)COc2ccccc21 [DDD01077687] | 8.75 | 39.1

Row | IC50 [2] [µM] | SMILES | %Inh HepG2 @10uM [1] [%] | inhibition at 2 µM [2] [%]
39 | 6.7 | COc1ccc(Oc2cc(CN)ccn2)cc1 [DDD01078308] | 2.32 | 30.1
40 | 1.24 | NC(=O)CN1CCC(Nc2ccnc3ccc(Cl)cc23)CC1 [DDD01078433] | -1.05 | 82
41 | 3.34 | Cc1cc(=O)n2nc(Oc3ccc(Cl)c(C)c3)sc2n1 [DDD01078480] | -6.83 | 42
42 | 5.74 | COc1c(C)cnc(CN(C)C2CCCCC2)c1C [DDD01078822] | 8.25 | 35.1
43 | 1.58 | CCOCc1ccc(CNC2=NCCCN2)cc1.I [DDD01079448] | -2.49 | 40.1
44 | 1.81 | Cc1ccc(CNC2CCN(CCc3ccncc3)CC2)cc1C [DDD01080013] | 1.32 | 77
45 | 2.29 | COc1cccc(CN(C)C(=O)CN2CC(n3nc(C)cc3C)C2)c1 [DDD01080719] | -1.82 | 49.9
46 | 7.55 | CCS(=O)(=O)N1CCC2(CC1)CN(CC1CCOC1)c1ccccc12.O=C(O)C(F)(F)F (stereo not drawn) [DDD01082339] | 25.95 | 46
47 | 7.18 | O=C(O)C(F)(F)F.c1ccc(CN2CCC3(CC2)CC(Nc2nccs2)CO3)nc1 (stereo not drawn) [DDD01083119] | -8.19 | 37.5
48 | 4.32 | CC(C)N(C)Cc1cnc2n1CCN(C(=O)NC1CCCC1)C2.O=C(O)C(F)(F)F [DDD01085014] | -9.47 | 42.5
49 | 2.53 | O=C(NCCCN1CCOCC1)c1ccn(-c2ccc3ccccn23)n1.O=C(O)C(F)(F)F [DDD01085308] | 23.54 | 50.4
50 | 0.201 | c1cc(-c2n[nH]cc2-c2ccnc(N3CCCC3)n2)ccn1 [DDD01235828] | -2.36 | 46.4
51 | 3.02 | COc1ccc2[nH]cc(-c3ccnc(NC4CCCC4)n3)c2c1 [DDD01235847] | -0.78 | 33.7
52 | 1.16 | CCCn1cc(-c2ccnc(NC3CCc4ccccc4C3)n2)c(C)n1 (stereo not drawn) [DDD01243522] | 19.33 | 31.2
53 | 3.87 | COc1cccc(CN2CC(=O)N(c3ccccc3C)CC2C)c1OC (stereo not drawn) [DDD01244654] | -6.78 | 51.8
54 | 1.3 | CNc1nc(C)cc(NCc2cc(C)cc3c(C)c(C)[nH]c23)n1 [DDD01244907] | 98.78 | 91.8
55 | 1.56 | CC1CCCCN1C(=O)c1coc(COc2cccc3cnccc23)n1 (stereo not drawn) [DDD01245028] | -6.78 | 66.8
56 | 4.85 | NCC1Cc2cc(-c3nccc(N4CCC(O)CC4)n3)cc(Cl)c2O1 (stereo not drawn) [DDD01245918] | 5.41 | 72.6

Row | SMILES | IC50 [2] [µM] | %Inh HepG2 @10uM [1] [%] | inhibition at 2 µM [2] [%]
57 | COc1cc2nc(NCc3ccc(C)nc3)nc(N)c2cc1OC [DDD01069328] | 2.24 | -5.25 | 58
